Patent publication US20260191194A1, “OXABICYCLOALKANE COMPOUNDS, PREPARATION METHOD THEREFOR, AND HERBICIDAL COMPOSITION AND USE THEREOF” (QINGDAO KINGAGROOT CHEMICAL COMPOUND CO., LTD., priority 2022, published 2026)

Experiments:
Format in all cases: in vivo
[1] = tested on: Soliva anthemifolia; assay: Activity test of compositions, early post-emergence foliage spray (F-EP); details: 21 days after treatment
Procedure: (§1) The required active ingredient B was purchased from a reagent company or synthesized by a known method. The technical materials were all dissolved with acetone solvents and diluted with an aqueous solution of 0.1% Tween 80 emulsifier, which were to be used immediately after dilution.
(§2) Weeds were cultivated by a pot culture method. […] Weed seeds with plump and uniform grains were selected, soaked in lukewarm water at 25° C. for 6 hours, and accelerated to germinate in a 28° C. biochemical incubator (in darkness). The weed seeds that had just germinated were evenly placed on the surface of the soil and then covered with 0.5-1 cm soil according to the sizes of seeds.
(§3) The culture was carried out in a controllable sunlight greenhouse at 20 to 30° C., in natural light, and with relative humidity of 57% to 72%.
(§4) Each treatment was repeated 4 times. Four pots with 20 weed seeds sowed per pot were treated each time.
(§5) The agents were used once in total in the experiment. In the stage of 1-2 leaves, the weeds were thinned out to maintain 10 strains per treatment for later use.
(§6) The well-cultured test materials were evenly placed on a platform with an area of 0.5 m^2, and foliage spraying was carried out by the 3WP-2000-type walking spray tower at a dosage of 450 kg/ha and a spray pressure of 0.3 MPa. After all the solution was sprayed, the air valve was closed, and 30 seconds later, the door of the spray tower was opened, and the nutritional bowl was taken out. Then the air valve was opened, and the spray tube was cleaned by spraying 50 ml of water. The test materials were transferred to and routinely cultured in a greenhouse after the treatment.
(§7) A method for investigating absolute numbers was employed. Whole seedlings of survival weeds were cut off with a blade along the soil surface, and the fresh weight of the weeds was weighed using an analytical balance. For dead weeds, the fresh weight thereof was zero.
(§8) The investigation was performed 21 days after the treatment for once in total.
(§9) The theoretical fresh weight inhibition rate of a mixed combination of each treatment was calculated by the Gowing method (E0=X+Y−X*Y/100). […] An optimal ratio was determined according to the actual control effects, characteristics of herbicides, and balance of the formulation. In the formula, X represents the fresh weight inhibition rate of the active ingredient A in a dosage of P; Y represents the fresh weight inhibition rate of the active ingredient B in a dosage of Q. The statistical results are shown in Table 4.

[2] = tested on: Digitaria ischaemum; assay: Activity test of compositions, soil sealing treatment (S); details: 21 days after treatment
Text: as §1
The test soil was quantitatively filled to 3/4 of the pot, and then watered from the bottom of the pot to completely wet the soil to saturation. The test weed seeds were accelerated to just germinate, and then evenly and quantitatively sowed on the soil surface, covered with 0.5-1 cm soil according to the sizes of the seeds, and ready for use 72 hours after sowing.
as §4
(§10) The well-sowed test materials were evenly placed on a platform with an area of 0.5 m^2, and foliage spraying was carried out by the 3WP-2000-type walking spray tower at a dosage of 450 kg/ha and a spray pressure of 0.3 MPa. After all the solution was sprayed, the air valve was closed, and 30 seconds later, the door of the spray tower was opened, and the nutritional bowl was taken out. Then the air valve was opened, and the spray tube was cleaned by spraying 50 ml of water.
as §7, §8, §9

[3] = tested on: Echinochloa glabrescens; assay: as above; details: 21 days after treatment
Procedure: as §1
(§11) Weeds were cultivated in a controllable sunlight greenhouse at 20 to 30° C., in natural light, and with relative humidity of 57% to 72%. […] The test soil was quantitatively filled to 3/4 of the pot, and then watered from the bottom of the pot to completely wet the soil to saturation. The test weed seeds were accelerated to just germinate, and then evenly and quantitatively sowed on the soil surface, covered with 0.5-1 cm soil according to the sizes of the seeds, and ready for use 72 hours after sowing.
as §4, §10, §7, §8, §9

[4] = tested on: Echinochloa crus-galli var. austrojaponensis; assay: Activity test of compositions, early post-emergence foliage spray (F-EP); details: 21 days after treatment; for pest or weed control at 450 g/ha: B alone 450 g a.i./ha; for pest or weed control at 300 g/ha: B alone 300 g a.i./ha
Procedure: as §1, §2, §3, §4, §5, §6, §7, §8, §9

[5] = tested on: Arivela viscosa; assay: Activity test of compositions, soil sealing treatment (S); details: 21 days after treatment
Procedure: as §1, §11, §4, §10, §7, §8, §9

[6] = tested on: Cyperus glomeratus; assay: as above; details: 21 days after treatment
Procedure: as §1, §11, §4, §10, §7, §8, §9

[7] = tested on: Echinochloa glabrescens; assay: Activity test of compositions, early post-emergence foliage spray (F-EP); details: 21 days after treatment
Procedure: as §1, §2, §3, §4, §5, §6, §7, §8, §9

[8] = tested on: Oxybasis glauca; assay: Activity test of compositions, soil sealing treatment (S); details: B alone 15 g a.i./ha, 21 days after treatment
Procedure: as §1, §11, §4, §10, §7, §8, §9

[9] = Echinochloa crus-galli, 504 h, read-out: Control effect of B applied alone in a corresponding dose
[10] = B alone 30 g a.i./ha (with A 60)

CC(C)CCCCCOC(=O)COc1ccc(Cl)cc1Cl [2,4-D-isooctyl]
Control effect of B applied alone in a corresponding dose ([1]; B alone 225 g a.i./ha): 61.4%

Cc1cc(Cl)ccc1OCC(=O)OCCCCCC(C)C [MCPA-isooctyl]
Control effect of B applied alone in a corresponding dose ([1]; B alone 300 g a.i./ha): 65%

CCOCN(C(=O)CCl)c1c(C)cccc1CC [acetochlor]
Control effect of B applied alone in a corresponding dose ([2]; B alone 300 g a.i./ha): 41.3

COP(=S)(OC)SCC(=O)N(c1ccc(Cl)cc1)C(C)(C)C [anilofos]
Control effect of B applied alone in a corresponding dose ([3]; B alone 75 g a.i./ha): 37.2

CCNc1nc(Cl)nc(NC(C)C)n1 [atrazine]
pest or weed control at 450 g/ha [4, 9]: 43.4%

CC[C@H](Oc1ccc(F)c(C(F)(F)F)c1)C(=O)NCc1ccccc1 [beflubutamid-M]
Control effect of B applied alone in a corresponding dose ([5]; B alone 90 g a.i./ha): 55.2%

COC(=O)c1ccccc1CS(=O)(=O)NC(=O)Nc1nc(OC)cc(OC)n1 [bensulfuronmethyl, bensulfuron-methyl]
Control effect of B applied alone in a corresponding dose ([6]; B alone 7.5 g a.i./ha): 27.5%

CS(=O)(=O)c1ccc(C(=O)C2=C(Sc3ccccc3)C3CCC(C3)C2=O)c(Cl)c1 (stereo not shown) [benzobicyclon]
Control effect of B applied alone in a corresponding dose ([4]; B alone 60 g a.i./ha): 48.7%

Cc1nn(C)cc1C(=O)Oc1c(C(=O)c2ccc(C(F)(F)F)cc2S(C)(=O)=O)c(C)nn1C [bipyrazone]
Control effect of B applied alone in a corresponding dose [4, 10]: 52.7%

CC1(C)CON(Cc2ccc(Cl)cc2Cl)C1=O [bixlozone]
Control effect of B applied alone in a corresponding dose ([5]; B alone 120 g a.i./ha): 74.5%

CCCCOCN(C(=O)CCl)c1c(CC)cccc1CC [butachlor]
Control effect of B applied alone in a corresponding dose ([3]; B alone 300 g a.i./ha): 41.3

CCC(C)Nc1c([N+](=O)[O-])cc(C(C)(C)C)cc1[N+](=O)[O-] (stereo not shown) [butralin]
Control effect of B applied alone in a corresponding dose ([2]; B alone 900 g a.i./ha): 60.2

Cc1ccc(NC(=O)N(C)C)cc1Cl [chlorotoluron]
pest or weed control at 450 g/ha [4, 9]: 37.6%

CC1(C)CON(Cc2ccccc2Cl)C1=O [clomazone]
Control effect of B applied alone in a corresponding dose ([5]; B alone 75 g a.i./ha): 70.6%

CCCCOC(=O)[C@@H](C)Oc1ccc(Oc2ccc(C#N)cc2F)cc1 [cyhalofop-butyl]
Control effect of B applied alone in a corresponding dose ([7]; B alone 150 g a.i./ha): 46.6%

O=C(Nc1ccc(F)cc1F)c1cccnc1Oc1cccc(C(F)(F)F)c1 [diflufenican]
Control effect of B applied alone in a corresponding dose ([5]; B alone 52.5 g a.i./ha): 65.8%

CCn1ncc(C(=O)c2ccc(S(C)(=O)=O)c(COCC(F)(F)F)c2Cl)c1OC(=O)c1cn(C)nc1C [fenpyrazone]
Control effect of B applied alone in a corresponding dose [4, 10]: 53.1%

CCN(C(=O)n1nnn(-c2ccccc2Cl)c1=O)C1CCCCC1 [fentrazamide]
Control effect of B applied alone in a corresponding dose ([3]; B alone 75 g a.i./ha): 40.3

COc1c(Cl)ccc(-c2nc(C(=O)OCc3ccccc3)c(Cl)c(N)c2F)c1F [florpyrauxifenbenzyl, florpyrauxifen-benzyl]
Control effect of B applied alone in a corresponding dose ([1]; B alone 7.5 g a.i./ha): 60.2%

Cc1ccn2nc(S(=O)(=O)Nc3c(F)cccc3F)nc2n1 [flumetsulam]
Control effect of B applied alone in a corresponding dose [8]: 57.9

Nc1c(Cl)c(F)nc(OCC(=O)O)c1Cl [fluroxypyr]
Control effect of B applied alone in a corresponding dose ([1]; B alone 75 g a.i./ha): 66.7%

CC(C)c1ccc(NC(=O)N(C)C)cc1 [isoproturon]
pest or weed control at 300 g/ha [4, 9]: 31.3%

CS(=O)(=O)c1cc(C(F)(F)F)ccc1C(=O)c1cnoc1C1CC1 [isoxaflutole]
pest or weed control at 30 g/ha ([4]; Echinochloa crus-galli, 504 h, B alone 30 g a.i./ha (with A 60), read-out: Control effect of B applied alone in a corresponding dose): 47.8%

CN(C(=O)COc1nc2ccccc2s1)c1ccccc1 [mefenacet]
Control effect of B applied alone in a corresponding dose ([3]; B alone 150 g a.i./ha): 37.9

CS(=O)(=O)c1ccc(C(=O)C2C(=O)CCCC2=O)c([N+](=O)[O-])c1 [mesotrione]
pest or weed control at 60 g/ha ([4]; Echinochloa crus-galli, 504 h, B alone 60 g a.i./ha (with A 60), read-out: Control effect of B applied alone in a corresponding dose): 51.7%

C[C@@H](Oc1ccc(Oc2nc3ccc(Cl)cc3o2)cc1)C(=O)N(C)c1ccccc1F [metamifop]
Control effect of B applied alone in a corresponding dose ([7]; B alone 75 g a.i./ha): 58.8%

CSc1nnc(C(C)(C)C)c(=O)n1N [metribuzin]
pest or weed control at 150 g/ha ([4]; Echinochloa crus-galli, 504 h, B alone 150 g a.i./ha, read-out: Control effect of B applied alone in a corresponding dose): 42.9%

CC(C)Oc1cc(-n2nc(C(C)(C)C)oc2=O)c(Cl)cc1Cl [oxadiazon]
Control effect of B applied alone in a corresponding dose ([6]; B alone 90 g a.i./ha): 32.4%

CC1=C(c2ccccc2)C(=O)N(C(C)(C)c2cc(Cl)cc(Cl)c2)CO1 [oxaziclomefone]
Control effect of B applied alone in a corresponding dose ([6]; B alone 22.5 g a.i./ha): 58.5%

CCOc1cc(Oc2ccc(C(F)(F)F)cc2Cl)ccc1[N+](=O)[O-] [oxyfluorfen]
Control effect of B applied alone in a corresponding dose ([6]; B alone 45 g a.i./ha): 37.2%

CCC(CC)Nc1c([N+](=O)[O-])cc(C)c(C)c1[N+](=O)[O-] [pendimethalin]
Control effect of B applied alone in a corresponding dose ([2]; B alone 375 g a.i./ha): 65.7

COc1cnc(OC)n2nc(NS(=O)(=O)c3c(OCC(F)F)cccc3C(F)(F)F)nc12 [penoxsulam]
Control effect of B applied alone in a corresponding dose ([6]; B alone 7.5 g a.i./ha): 26.4%

CCCOCCN(C(=O)CCl)c1c(CC)cccc1CC [pretilachlor]
Control effect of B applied alone in a corresponding dose ([3]; B alone 150 g a.i./ha): 43.6

CCCC(=NOCC(C)Oc1ccc(Cl)cc1)C1=C(O)CC(C2CCCSC2)CC1=O (stereo not shown) [profoxydim]
Control effect of B applied alone in a corresponding dose ([7]; B alone 45 g a.i./ha): 54.7%

CSc1nc(NC(C)C)nc(NC(C)C)n1 [prometryn]
pest or weed control at 300 g/ha [4, 9]: 41%

C#CCN(C)c1c(C#N)cnn1-c1nn2c(c1Cl)CCCC2 [pyraclonil]
Control effect of B applied alone in a corresponding dose ([6]; B alone 45 g a.i./ha): 48.6%

CCOC(=O)c1cnn(C)c1S(=O)(=O)NC(=O)Nc1nc(OC)cc(OC)n1 [pyrazosulfuronethyl, pyrazosulfuron-ethyl]
Control effect of B applied alone in a corresponding dose ([6]; B alone 7.5 g a.i./ha): 29.8%

Cn1nc(C(F)(F)F)c(CS(=O)(=O)C2=NOC(C)(C)C2)c1OC(F)F [pyroxasulfone]
Control effect of B applied alone in a corresponding dose ([2]; B alone 45 g a.i./ha): 46.3

CS(=O)(=O)c1ccc(C(=O)C2C(=O)CCCC2=O)c(Cl)c1COCC1CCCO1 (stereo not shown) [tefuryltrione]
Control effect of B applied alone in a corresponding dose ([4]; B alone 15 g a.i./ha): 51.7%

CCNc1nc(Cl)nc(NC(C)(C)C)n1 [terbuthylazine]
pest or weed control at 225 g/ha ([4]; Echinochloa crus-galli, 504 h, B alone 225 g a.i./ha, read-out: Control effect of B applied alone in a corresponding dose): 48.4%

CC(C)N(C(=O)SCC(Cl)=C(Cl)Cl)C(C)C [triallate]
Control effect of B applied alone in a corresponding dose ([2]; B alone 300 g a.i./ha): 38.4

Cc1cc(C)n(Cc2c(S(C)(=O)=O)ccc(C(=O)c3c(C)nn(C)c3OC(=O)c3cn(C)nc3C)c2Cl)n1 [tripyrasulfone]
Control effect of B applied alone in a corresponding dose ([4]; B alone 60 g a.i./ha): 50.4%

oxadiargyl
Control effect of B applied alone in a corresponding dose ([6]; B alone 45 g a.i./ha): 42.5%
